Biological target: T1, quinol:fumarate reductase (QFR), site in subunit A (FAD-binding protein) (Megalodesulfovibrio gigas, UniProt T2GB49)
T1 construct: gene fdrA; native, purified from D. gigas membranes in DDM; A2B2C2 homo-dimer; subunit A 627 residues (1-622 built), B 264, C 218; with Fumarate reductase iron-sulfur subunit; Fumarate reductase cytochrome b subunit
T1 sequence (T2GB49 1-627): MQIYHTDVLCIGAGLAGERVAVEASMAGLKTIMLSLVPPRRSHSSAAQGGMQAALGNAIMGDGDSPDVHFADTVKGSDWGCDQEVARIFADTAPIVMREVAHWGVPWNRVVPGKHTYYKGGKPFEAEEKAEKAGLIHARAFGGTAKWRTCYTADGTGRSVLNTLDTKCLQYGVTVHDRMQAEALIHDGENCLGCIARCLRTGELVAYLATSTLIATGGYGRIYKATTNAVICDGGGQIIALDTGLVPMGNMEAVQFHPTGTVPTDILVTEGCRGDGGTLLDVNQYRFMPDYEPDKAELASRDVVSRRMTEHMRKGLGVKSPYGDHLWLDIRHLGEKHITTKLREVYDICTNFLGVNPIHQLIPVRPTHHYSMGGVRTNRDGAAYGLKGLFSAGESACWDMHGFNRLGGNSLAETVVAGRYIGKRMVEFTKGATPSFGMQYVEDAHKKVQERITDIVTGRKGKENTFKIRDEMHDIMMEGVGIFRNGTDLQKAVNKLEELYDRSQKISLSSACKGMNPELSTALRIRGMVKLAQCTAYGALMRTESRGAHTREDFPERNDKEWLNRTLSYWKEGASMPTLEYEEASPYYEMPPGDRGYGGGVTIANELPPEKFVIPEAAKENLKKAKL
T1 sequence (T2G9X8 1-264 partner): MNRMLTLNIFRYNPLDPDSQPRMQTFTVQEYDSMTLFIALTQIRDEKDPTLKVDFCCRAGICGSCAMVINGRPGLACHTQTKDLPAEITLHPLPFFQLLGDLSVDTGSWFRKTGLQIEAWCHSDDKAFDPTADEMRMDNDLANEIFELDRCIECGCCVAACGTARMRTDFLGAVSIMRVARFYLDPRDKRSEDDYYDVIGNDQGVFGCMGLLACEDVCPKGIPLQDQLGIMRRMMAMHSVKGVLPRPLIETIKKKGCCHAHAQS
T1 sequence (T2GAT5 1-218 partner): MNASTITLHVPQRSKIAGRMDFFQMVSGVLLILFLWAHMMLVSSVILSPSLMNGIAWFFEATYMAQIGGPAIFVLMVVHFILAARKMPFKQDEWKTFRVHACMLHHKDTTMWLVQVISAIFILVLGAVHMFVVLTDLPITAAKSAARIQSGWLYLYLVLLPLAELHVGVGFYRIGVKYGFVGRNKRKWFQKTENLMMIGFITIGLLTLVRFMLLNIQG
Assay: X-ray crystal structure, […] Å
Conditions: crystals at pH 8.5

Cc1cc2nc3c(=O)[nH]c(=O)nc-3n(C[C@H](O)[C@H](O)[C@H](O)COP(=O)(O)OP(=O)(O)OC[C@H]3O[C@@H](n4cnc5c(N)ncnc54)[C@H](O)[C@@H]3O)c2cc1C [FAD, flavin adenine dinucleotide]
X-ray crystal structure, 3.6 Å (covalent, C8M methyl of flavin to His-A43): FAD binds to the FAD-binding domain through a covalent bond with residue His-A43

O=C(O)/C=C/C(=O)O [fumarate]
X-ray crystal structure, 3.6 Å (fumarate site near the FAD in subunit A): A fumarate molecule is also observed near the FAD in the A subunit
